# Assay results published in ChEMBL document CHEMBL1201862, “PubChem BioAssay data set” (2004).
# Calls of active or inactive are those of the source.
# Legend:
# [1] = molecular target: Heat shock protein HSP 90-alpha (Homo sapiens, UniProt P07900); type: functional, organism-based
# [2] = Fluorescence-based cell-based high throughput dose response assay for inhibitors of the interaction of nucleotide-binding oligomerization domain containing 2 (NOD2) and the receptor-interacting serine-threonine kinase 2 (RIPK2).; type: functional; conditions: Homo sapiens
# [3] = molecular target: Glucose-6-phosphate 1-dehydrogenase (Homo sapiens, UniProt P11413); experiment: human G6PD enzyme inhibitors, dose response, selectivity assay for P. falciparum G6PD inhibitor project, biochemical, fluorescence (AID 504792); type: functional
# Chain of Glucose-6-phosphate 1-dehydrogenase (P11413 whole entry): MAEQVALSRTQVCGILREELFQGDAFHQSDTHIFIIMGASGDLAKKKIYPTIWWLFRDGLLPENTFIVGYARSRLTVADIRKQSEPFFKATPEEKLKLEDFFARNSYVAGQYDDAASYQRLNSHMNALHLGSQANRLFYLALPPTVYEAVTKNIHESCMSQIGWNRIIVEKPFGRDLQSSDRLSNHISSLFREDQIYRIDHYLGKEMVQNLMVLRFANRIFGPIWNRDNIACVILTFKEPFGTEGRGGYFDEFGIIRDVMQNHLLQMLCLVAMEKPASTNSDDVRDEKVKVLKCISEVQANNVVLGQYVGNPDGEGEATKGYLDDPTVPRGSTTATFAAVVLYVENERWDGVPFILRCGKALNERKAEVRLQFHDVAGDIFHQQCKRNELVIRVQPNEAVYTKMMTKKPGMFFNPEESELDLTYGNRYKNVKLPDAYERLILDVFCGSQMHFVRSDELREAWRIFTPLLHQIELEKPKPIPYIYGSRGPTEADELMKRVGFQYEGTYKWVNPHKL
# Hexokinase HKDC1 = molecular target: T1, Hexokinase HKDC1 (Homo sapiens, UniProt Q2TB90); experiment: HKDC1 hexokinase activators, dose response, biochemical, W721R variant (AID 504730); type: functional
# T1 sequence (Q2TB90 whole entry): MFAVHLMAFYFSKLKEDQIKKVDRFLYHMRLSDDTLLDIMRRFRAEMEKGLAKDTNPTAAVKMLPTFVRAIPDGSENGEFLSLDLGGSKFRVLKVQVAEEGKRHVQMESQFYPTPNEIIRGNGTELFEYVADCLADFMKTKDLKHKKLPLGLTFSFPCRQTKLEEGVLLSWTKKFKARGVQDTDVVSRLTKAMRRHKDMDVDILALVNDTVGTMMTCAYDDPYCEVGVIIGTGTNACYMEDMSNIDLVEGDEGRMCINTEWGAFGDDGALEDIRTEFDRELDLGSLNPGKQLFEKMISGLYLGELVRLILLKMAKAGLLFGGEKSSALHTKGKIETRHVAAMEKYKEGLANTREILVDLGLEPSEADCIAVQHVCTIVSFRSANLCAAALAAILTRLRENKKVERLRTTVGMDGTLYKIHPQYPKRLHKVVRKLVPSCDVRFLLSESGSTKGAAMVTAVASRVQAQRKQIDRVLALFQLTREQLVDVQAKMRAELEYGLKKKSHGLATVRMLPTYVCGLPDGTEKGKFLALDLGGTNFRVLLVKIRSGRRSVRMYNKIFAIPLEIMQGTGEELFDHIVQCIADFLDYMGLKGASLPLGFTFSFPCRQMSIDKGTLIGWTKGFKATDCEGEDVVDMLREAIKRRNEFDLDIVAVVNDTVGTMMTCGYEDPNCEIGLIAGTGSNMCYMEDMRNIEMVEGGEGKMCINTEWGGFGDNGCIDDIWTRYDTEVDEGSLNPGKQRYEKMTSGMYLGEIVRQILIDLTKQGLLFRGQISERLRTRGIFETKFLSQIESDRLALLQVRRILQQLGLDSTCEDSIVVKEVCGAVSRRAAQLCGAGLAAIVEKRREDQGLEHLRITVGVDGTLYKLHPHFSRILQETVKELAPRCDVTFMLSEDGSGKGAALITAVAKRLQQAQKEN
# [4] = molecular target: C-C chemokine receptor type 6 (Homo sapiens, UniProt P51684); experiment: CCR6 receptor antagonists, dose response, cell-based, luminescent beta-arrestin readout (AID 504728); type: functional
# Chain of C-C chemokine receptor type 6 (P51684 whole entry): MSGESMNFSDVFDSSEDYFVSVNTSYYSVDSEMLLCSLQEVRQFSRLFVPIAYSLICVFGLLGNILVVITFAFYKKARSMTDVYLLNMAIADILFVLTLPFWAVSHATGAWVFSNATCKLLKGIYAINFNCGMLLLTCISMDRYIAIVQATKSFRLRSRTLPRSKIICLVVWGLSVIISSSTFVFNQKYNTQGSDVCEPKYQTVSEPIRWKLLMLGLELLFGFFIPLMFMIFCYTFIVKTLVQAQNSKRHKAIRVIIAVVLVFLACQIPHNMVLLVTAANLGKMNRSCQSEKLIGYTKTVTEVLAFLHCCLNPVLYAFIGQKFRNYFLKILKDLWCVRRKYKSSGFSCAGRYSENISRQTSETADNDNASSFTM
# Hexokinase-1 = Hexokinase-1 (Homo sapiens, UniProt P19367); experiment: hexokinase 1 activators, dose response, selectivity assay for HKDC1 activator project, biochemical (AID 504762); type: functional
# Chain of Hexokinase-1 (P19367 whole entry): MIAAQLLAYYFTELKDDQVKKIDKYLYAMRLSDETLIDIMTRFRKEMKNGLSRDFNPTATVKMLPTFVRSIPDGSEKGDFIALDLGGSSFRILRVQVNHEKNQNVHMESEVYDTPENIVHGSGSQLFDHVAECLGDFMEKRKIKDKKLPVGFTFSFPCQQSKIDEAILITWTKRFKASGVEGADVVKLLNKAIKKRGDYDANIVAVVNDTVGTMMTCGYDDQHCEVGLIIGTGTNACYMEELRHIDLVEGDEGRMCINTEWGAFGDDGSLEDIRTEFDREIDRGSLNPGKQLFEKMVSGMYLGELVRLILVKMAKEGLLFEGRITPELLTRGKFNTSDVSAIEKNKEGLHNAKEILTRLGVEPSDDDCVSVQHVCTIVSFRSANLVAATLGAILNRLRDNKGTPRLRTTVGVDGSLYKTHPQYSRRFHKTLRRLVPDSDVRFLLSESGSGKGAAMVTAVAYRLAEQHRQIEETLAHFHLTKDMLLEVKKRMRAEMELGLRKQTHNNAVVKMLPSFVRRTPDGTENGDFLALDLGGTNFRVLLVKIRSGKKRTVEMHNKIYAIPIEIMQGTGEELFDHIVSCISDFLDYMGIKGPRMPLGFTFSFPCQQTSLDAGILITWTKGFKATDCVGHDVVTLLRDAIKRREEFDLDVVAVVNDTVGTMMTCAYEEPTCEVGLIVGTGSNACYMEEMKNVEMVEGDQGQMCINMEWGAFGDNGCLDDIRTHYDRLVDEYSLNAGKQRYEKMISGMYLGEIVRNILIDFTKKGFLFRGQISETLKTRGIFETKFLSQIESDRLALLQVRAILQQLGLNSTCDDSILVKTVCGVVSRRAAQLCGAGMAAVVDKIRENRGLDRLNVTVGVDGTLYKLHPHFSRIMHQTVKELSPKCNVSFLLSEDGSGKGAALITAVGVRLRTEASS
# Beta-galactosidase = Beta-galactosidase (Escherichia coli, UniProt Q8VNN2); experiment: beta-galactosidase enzyme inhibitors and activators, dose response, artefact control for CCR6 antagonist project, biochemical, E. coli enzyme, set 3 (AID 504712); type: functional
# Chain of Beta-galactosidase (Q8VNN2 whole entry): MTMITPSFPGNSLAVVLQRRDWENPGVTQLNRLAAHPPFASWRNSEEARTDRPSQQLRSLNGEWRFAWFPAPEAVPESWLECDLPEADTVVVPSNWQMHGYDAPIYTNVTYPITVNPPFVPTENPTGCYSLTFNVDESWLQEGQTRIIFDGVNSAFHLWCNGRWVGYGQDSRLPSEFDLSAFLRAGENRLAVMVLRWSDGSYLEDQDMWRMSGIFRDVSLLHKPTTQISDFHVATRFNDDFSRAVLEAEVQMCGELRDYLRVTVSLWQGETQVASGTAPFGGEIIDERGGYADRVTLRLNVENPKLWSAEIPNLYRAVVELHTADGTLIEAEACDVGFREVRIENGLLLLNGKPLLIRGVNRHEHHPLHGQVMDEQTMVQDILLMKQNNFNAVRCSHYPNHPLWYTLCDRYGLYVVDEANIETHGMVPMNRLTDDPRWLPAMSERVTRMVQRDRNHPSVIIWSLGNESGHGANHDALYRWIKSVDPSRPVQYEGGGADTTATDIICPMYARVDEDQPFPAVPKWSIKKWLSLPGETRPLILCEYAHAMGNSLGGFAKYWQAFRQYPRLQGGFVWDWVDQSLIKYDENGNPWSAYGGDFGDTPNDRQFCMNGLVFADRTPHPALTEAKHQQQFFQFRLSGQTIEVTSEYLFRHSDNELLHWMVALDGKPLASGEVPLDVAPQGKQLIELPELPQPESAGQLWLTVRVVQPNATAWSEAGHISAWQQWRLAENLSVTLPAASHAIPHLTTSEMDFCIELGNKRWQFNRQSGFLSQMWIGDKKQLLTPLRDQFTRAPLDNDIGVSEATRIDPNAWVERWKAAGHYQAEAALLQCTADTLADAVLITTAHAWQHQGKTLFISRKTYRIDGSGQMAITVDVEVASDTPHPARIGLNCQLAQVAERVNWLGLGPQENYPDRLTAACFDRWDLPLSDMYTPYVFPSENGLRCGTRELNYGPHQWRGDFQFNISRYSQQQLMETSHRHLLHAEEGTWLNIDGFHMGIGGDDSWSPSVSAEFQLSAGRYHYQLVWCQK
# Beta Lactamase = Beta Lactamase (Pseudomonas aeruginosa, UniProt Q932Y6); experiment: beta-lactamase reporter inhibitor potency, dose response, artefact control for NOD2-RIPK2 interaction inhibitor project, BLA reporter cells, FRET fluorescence (AID 651552); type: functional, cell-based
# Chain of Beta Lactamase (Q932Y6 whole entry): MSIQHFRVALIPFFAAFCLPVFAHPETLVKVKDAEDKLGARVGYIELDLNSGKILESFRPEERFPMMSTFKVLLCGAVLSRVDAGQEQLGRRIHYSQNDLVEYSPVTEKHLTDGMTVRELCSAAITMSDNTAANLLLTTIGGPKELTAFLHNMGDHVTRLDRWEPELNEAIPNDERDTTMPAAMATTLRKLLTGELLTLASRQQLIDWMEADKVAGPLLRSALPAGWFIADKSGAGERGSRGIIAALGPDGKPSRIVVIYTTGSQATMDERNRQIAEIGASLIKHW
# [5] = mammalian cell cytotoxicity, dose response, cytotoxicity control, plate reader, cherry-pick samples (AID 504397); type: functional, cell-based
# [6] = cytotoxicity toward DRD oncogenic fibroblasts, dose response, cell-based, non-viral oncogenic, luminescence (AID 1934); type: functional; conditions: Homo sapiens
# BJ [7] = experiment: cells; type: functional, cell-based; conditions: Homo sapiens
# BJ [8] = experiment: cytotoxicity toward BJ-TERT-LT-ST fibroblasts, dose response, cell-based, RAS-independent, luminescence (AID 1935); type: functional; conditions: Homo sapiens;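 further: BJ fibroblasts immortalized with TERT plus LT and ST oncogenes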
# CAAX prenyl protease 2 [9] = molecular target: T2, CAAX prenyl protease 2 (Saccharomyces cerevisiae S288c, UniProt Q03530); type: biochemical
# T2 sequence (Q03530 whole entry): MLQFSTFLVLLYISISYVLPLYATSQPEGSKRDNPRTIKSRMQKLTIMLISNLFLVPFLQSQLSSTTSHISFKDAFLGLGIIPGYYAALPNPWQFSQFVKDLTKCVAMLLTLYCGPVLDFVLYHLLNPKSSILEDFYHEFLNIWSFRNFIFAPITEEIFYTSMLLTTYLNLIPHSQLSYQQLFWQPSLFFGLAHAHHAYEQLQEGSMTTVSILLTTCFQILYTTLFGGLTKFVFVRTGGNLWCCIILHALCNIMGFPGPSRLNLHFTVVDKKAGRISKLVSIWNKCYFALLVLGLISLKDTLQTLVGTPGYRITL
# CAAX prenyl protease 2 [10] = molecular target: CAAX prenyl protease 2 (Homo sapiens, UniProt Q9Y256); experiment: human Rce1 protease inhibitors, dose response, biochemical, yeast membranes, quenched-peptide fluorescence, cherry-pick (AID 588849)
# Chain of CAAX prenyl protease 2 (Homo sapiens, UniProt Q9Y256) (Q9Y256 whole entry): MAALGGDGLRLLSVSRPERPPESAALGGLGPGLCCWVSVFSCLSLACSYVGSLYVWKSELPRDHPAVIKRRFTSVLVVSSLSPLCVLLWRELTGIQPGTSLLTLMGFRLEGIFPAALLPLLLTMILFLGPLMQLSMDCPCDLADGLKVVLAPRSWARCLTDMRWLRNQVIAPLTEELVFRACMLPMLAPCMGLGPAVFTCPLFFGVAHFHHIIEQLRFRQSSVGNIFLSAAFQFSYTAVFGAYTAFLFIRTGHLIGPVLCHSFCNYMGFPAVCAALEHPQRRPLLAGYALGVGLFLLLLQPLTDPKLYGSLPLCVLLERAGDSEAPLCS
# BJ [11] = experiment: cytotoxicity toward BJ-TERT fibroblasts, dose response, cell-based, RAS-independent, luminescence (AID 1933); type: functional; conditions: Homo sapiens
# [12] = molecular target: Peroxisome proliferator-activated receptor alpha (Homo sapiens, UniProt Q07869); experiment: Late stage assay provider counterscreen for partial agonists of the peroxisome proliferator-activated receptor gamma (PPARg): Luminescence-based cell-based dose response assay for partial agonists of the peroxisome proliferator-activated receptor alpha (PPARA). [Related pubchem assays (depositor defined):AID1051, AID1300, AID1319, AID1679, AID1808, AID504446, AID504447, AID504452, AID504453, AID631]; type: functional
# Chain of Peroxisome proliferator-activated receptor alpha (Q07869 whole entry): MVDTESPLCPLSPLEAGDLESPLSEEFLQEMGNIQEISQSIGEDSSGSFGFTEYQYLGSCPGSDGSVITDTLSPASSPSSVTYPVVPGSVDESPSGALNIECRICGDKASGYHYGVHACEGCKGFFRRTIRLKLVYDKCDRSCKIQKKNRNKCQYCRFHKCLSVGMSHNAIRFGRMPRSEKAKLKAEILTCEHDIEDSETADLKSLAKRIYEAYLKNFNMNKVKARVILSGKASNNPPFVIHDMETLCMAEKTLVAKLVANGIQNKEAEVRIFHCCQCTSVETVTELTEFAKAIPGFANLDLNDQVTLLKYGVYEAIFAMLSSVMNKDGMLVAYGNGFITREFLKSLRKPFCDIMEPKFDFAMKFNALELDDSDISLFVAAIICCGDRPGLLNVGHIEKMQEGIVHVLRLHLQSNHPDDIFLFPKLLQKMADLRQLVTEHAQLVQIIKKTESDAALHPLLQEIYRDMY
# [13] = molecular target: Peroxisome proliferator-activated receptor gamma (Homo sapiens, UniProt P37231); experiment: PPARg partial agonists, dose response, cell-based, luminescence, assay provider (AID 504447); type: functional
# Chain of Peroxisome proliferator-activated receptor gamma (P37231 whole entry): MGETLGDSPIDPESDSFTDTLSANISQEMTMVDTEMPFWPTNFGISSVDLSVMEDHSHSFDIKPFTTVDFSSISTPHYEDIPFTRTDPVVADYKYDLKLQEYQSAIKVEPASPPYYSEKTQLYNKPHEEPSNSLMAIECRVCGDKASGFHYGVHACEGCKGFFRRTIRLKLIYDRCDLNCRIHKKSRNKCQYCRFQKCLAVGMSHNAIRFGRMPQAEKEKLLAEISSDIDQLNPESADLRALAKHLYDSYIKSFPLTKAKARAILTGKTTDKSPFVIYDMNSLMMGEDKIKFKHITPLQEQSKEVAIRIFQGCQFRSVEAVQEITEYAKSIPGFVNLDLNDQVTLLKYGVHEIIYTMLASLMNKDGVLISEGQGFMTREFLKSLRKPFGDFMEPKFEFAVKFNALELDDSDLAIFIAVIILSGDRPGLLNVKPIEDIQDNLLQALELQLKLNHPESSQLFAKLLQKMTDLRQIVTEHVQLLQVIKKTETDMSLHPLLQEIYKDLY
smiles,measurement,setting,value
COC(=O)C1=C(C(=O)OC)SC2(S1)C(C(=O)OC)=C(C(=O)OC)Sc1c2ssc1=O,AC50,[1],4.21 µM (active)
same,IC50,[2],0.727 µM (active)
same,IC50,[3],> 80 µM (inactive)
same,EC50,Hexokinase HKDC1,33.1 µM (inactive)
same,IC50,[4],28.5 µM (inactive)
same,EC50,Hexokinase-1,49.6 µM (inactive)
same,IC50,Beta-galactosidase,> 66.6 µM (inactive)
same,IC50,Beta Lactamase,14.1 µM (inactive)
O=C1C(=O)N(C/C=C/c2ccccc2)c2ccccc21,AC50,[5],64.6 µM (active)
same,EC50,[6],39.8 µM (active)
same,EC50,BJ [7],> 150 µM (not active)
same,EC50,BJ [8],14.9 µM (active)
same,AC50,CAAX prenyl protease 2 [9],1.92 µM (active)
same,AC50,CAAX prenyl protease 2 [10],5.17 µM (active)
same,EC50,BJ [11],8.22 µM (inconclusive)
CCOc1cccc(/C=C2/SC(=S)N(CCC(=O)O)C2=O)c1,EC50,[12],> 3 µM (inactive)
same,EC50,[13],2.6 µM (active)
